From article PMC12668304, “A Triple Threat Against Ovarian Cancer: Os(II)‐Pt(IV)‐Ceritinib Conjugates for Photodynamic Therapy, Chemotherapy, and Immunogenic Cell Death Induction” (Angewandte Chemie (International Ed. in English), 2025)
Where two headings read alike, the source gives them in different places.

What was measured:
[1] = system: A2780 cells; experiment: (Photo-)cytotoxicity on 2D cell monolayers, resazurin assay; assay type: cell-based, human; conditions: A2780, normoxic, dark, 4 h exposure, total 48 h incubation, read-out: IC50 Dark
Experimental: (§1) The 2D cytotoxicity and phototoxicity profiles of Os‐Pt‐Cer and controls, were evaluated in a panel of cancerous cell lines, including A2780 (ovarian carcinoma), A549 (non‐small cell lung carcinoma), and MCA205 (murine fibrosarcoma), as well as a non‐cancerous retinal pigment epithelial cell line (RPE‐1). Cells were treated with the compounds (0.003–100 µM) for 4 h, either kept in the dark or irradiated at 670 nm (13.5 J cm^− ^2) (Table S4 and Figure S22) or 740 nm (12.6 J cm^− ^2) and viability was assessed 44 h post‐treatment. To verify robustness, the incubation was extended to 72 h. […]
(§2) Human ovarian cancer (A2780) cells and mouse fibrosarcoma cells (MCA205) were cultured in RPMI media. Retinal pigment epithelium (RPE -1) cells were cultured in DMEM/F -12 medium. Lung cancer cells (A549) were cultured in F -12K medium. These cell lines were complemented with 10% of fetal bovine serum, 100 U/mL penicillin -streptomycin mixture, and maintained in a humidified atmosphere […]
(§3) (Photo-)cytotoxicity on 2D cell monolayers
(§4) The cytotoxicity of the compounds was assessed by measuring cell viability using a resazurin assay.
(§5) The cells were seeded in triplicates in 96 well plates with a density of 10 4 cells per well in 100 μL of media. After 24 h, the medium was removed, and the cells were treated with increasing concentrations (0.003 → 100 µM) of the compounds diluted in cell media , achieving a total volume of 100 μL/well.
(§6) The cells were incubated with the compound for 4 h (final incubation time 48 h) or 24 h (final incubation time 72 h). After this time, the media was removed and replaced with 100 μL of fresh medium. For the phototoxicity studies, the cells were exposed to light with an Atlas Photonics LUMOS BIO irradiation system. Each well was constantly irradiated at 670 nm (60 min, 13.50 J·cm-2) or 740 nm (60 min, 12.60 J·cm-2). During the irradiation, the temperature of the plate was maintained at 37 °C. The cells were grown in the incubator for an additional 44 or 48 h, respectively. For the determination of the dark cytotoxicity, the cells were not irradiated and after the medium exchange directly incubated for 44 h.
(§7) After this time, the medium was replaced with fresh medium containing resazurin (0.2 mg/mL). After […]
(§8) 4 h of incubation, the conversion of resazurin into resorufin was determined upon excitation at 540 nm and measurement of its emission at 590 nm using a Cytation 5 Imaging Reader from BioTek. The obtained data was analysed with the GraphPad Prism software […]
(§9) After 24 h of incubation at 37 °C, 5% CO 2, plates were read using a SpectraMaxM2 Microplate Reader ( λexc = 540 nm; λread = 590 nm). Fluorescence data were normalised, and data were fitted using GraphPad Prism Software, and IC 50 was calculated by non - linear regression. Changes in the size and shape of MCTS were monitored every 24 h using Cytation 5 Imaging Reader from BioTek, objective x4.
(§10) Intracellular distribution by confocal fluorescence microscopy
(§11) 10^4 cells/well (A2780 cells) were seeded in complete medium (RPMI) in µ -slide 8 well (Ibidi) (100 µl/well) and left for 24 h to attach to the bottom. Then, the culture medium was removed , and 100 µl of solution of the corresponding complexes (5 µM) was added. The complexes were incubated with the cells for 4 hours. Thereafter, the medium was removed and replaced by RPMI without phenol red , and Hoechst and MitoTracker Green were added at a final concentration of 1 µg/mL. They were incubated with the cells for 30 min in the dark at 37 °C. Images were collected in a sequential mode in a Leica TCS SP8 confocal microscope with a 60x oil immers ion objective, a line average of 4, and a format of […]
(§12) (MTG)→ 500 -550nm, and 488 nm (complexes)→ 680 -730 nm. The confocal pinhole was 1 Airy unit.
(§13) Images were analysed with LAS X Flim FCS software.
(§14) Intracellular distribution by ICP -MS

[2] = system: MCA205 cells; experiment: as above; assay type: cell-based, mouse; conditions: for IC50: MCA205, normoxic, 4 h exposure
Experimental: as §1, §2, §3, §4, §5, §6, §7, §8, §9, §10, §11, §12, §13, §14

[3] = Mus musculus, MCA-205, dark, total 48 h incubation, read-out: IC50 Dark

## O=C1[O][Pt]2([NH][C@@H]3CCCC[C@H]3[NH]2)[O]C1=O [Oxaliplatin]
[1]
  IC50: 46.15 ± 0.2 µM
[2]; dark, total 48 h incubation, read-out: IC50 Dark
  IC50: 0.8 ± 0.09 µM

## Cc1cc(Nc2ncc(Cl)c(Nc3ccccc3S(=O)(=O)C(C)C)n2)c(OC(C)C)cc1C1CCNCC1 [Ceritinib]
[1]; Homo sapiens
  IC50: 2.61 ± 0.5 µM
[2]; [3]
  IC50: 6.97 ± 0.7 µM

## C=Cc1c(C)c2cc3nc(c(CC(=O)O)c4[nH]c(cc5nc(cc1[nH]2)C(C)=C5CC)c(C)c4C(=O)O)[C@@H](CCC(=O)O)[C@@H]3C [Ce6, Chlorin e6]
[2]; MCA205
  PI (IC50 dark/IC50 irradiation 740 nm): ≥53
[2]; Mus musculus, MCA-205, 740 nm (60 min, 12.60 J·cm^−2), total 48 h, read-out: IC50 Irrad. 740 nm
  IC50: 1.88 ± 0.2 µM
[2]; [3]
  IC50: > 100 µM
